Legend:
Assay type in all cases: cell-based, mouse
[1] = system: PGE2 production in LPS-induced macrophages; assay: PGE2 assay in LPS-induced RAW264.7 macrophages; conditions: pure compound in cell media, 1 μg/ml LPS, 8 hours
Method: RAW264.7 macrophages were purchased from the American Type Culture Collections (ATCC; […] Cells were plated at a density of 1.0×10^5 cells/well in 24-well cell culture plates and allowed to attach overnight. […] Louis, Mo.) and solvent alone, dimethylsulfoxide (DMSO) (Sigma, St. Louis, Mo.), or H. gentianoides extract or fraction simultaneously for 8 hours. Cell supernatants were collected on ice, and stored in a −70° C. freezer for use in the PGE2 assay. […] Four controls were included in each treatment: media alone, media and DMSO, media and LPS, and media and LPS and DMSO. In addition, 10 μM quercetin was used as a positive control. Since H. perforatum contains light-activated compounds, the H. gentianoides extract was tested in both light-activated and dark conditions initially to determine if the activity was dependent on light activation. […] The supernatant samples were assayed with a Prostaglandin E2 EIA kit (GE Biosciences, Piscataway, N.J.) according to manufacturer's instructions. […] Data is shown as mean percent reduction in LPS-induced PGE2 levels±the standard error as compared to the media+LPS+DMSO control. Statistical significance was determined by an F-protected two-way ANOVA followed by a Tukey-Kramer test for multiple comparisons (Snedecor, G. W., Cochran, W. G., Eds. (1989). Statistical Methods, 8th ed. University Press: Ames, Iowa). For cytotoxicity, data are represented as mean % cytotoxicity±standard error as compared to the media+DMSO control. Statistical significance was determined by an F-protected two-way ANOVA followed by a Dunnett-Hsu test for multiple comparisons (Dunnett C. W. (1955). “A multiple comparison procedure for comparing several treatments with a control.” Journal of the American Statistical Association. 50:1096-1121). […] The ability of H. gentianoides extracts to reduce the inflammatory response was assessed by quantifying PGE2 production in LPS-induced macrophages. […]

RAW264.7 macrophages = assay: CellTiter96 cytotoxicity assay in RAW264.7 macrophages
Method: CellTiter96® Aqueous One Solution cell proliferation assay (Promega Corporation, Madison, Wis.) was used as previously described in Schmitt et al. with an 8-hour treatment incubation instead of 24-hour treatment incubation to parallel the anti-inflammatory studies (Schmitt, L. A., et al., (2006)). Following the 8 hour incubation, treatment solutions were removed and fresh media and Celltiter96® dye were added for 3 hours and 15 minutes (Schmitt, L. A., et al., (2006)). The metabolized dye solutions were transferred to 96-well plates for absorbance measurement at 490 nm. The number of viable cells for each treatment was compared to the media+DMSO solvent control. Treatment with 20 μM hypericin was used as a positive control. Data is shown as mean percent reduction in LPS-induced PGE2 levels±the standard error as compared to the media+LPS+DMSO control. Statistical significance was determined by an F-protected two-way ANOVA followed by a Tukey-Kramer test for multiple comparisons (Snedecor, G. W., Cochran, W. G., Eds. (1989). Statistical Methods, 8th ed. University Press: Ames, Iowa). For cytotoxicity, data are represented as mean % cytotoxicity±standard error as compared to the media+DMSO control. Statistical significance was determined by an F-protected two-way ANOVA followed by a Dunnett-Hsu test for multiple comparisons (Dunnett C. W. (1955). “A multiple comparison procedure for comparing several treatments with a control.” Journal of the American Statistical Association. 50:1096-1121).

cyclooxygenase-2 = assay: Western blot of COX-2 protein in LPS-induced RAW 264.7 macrophages; conditions: 8 hour treatment, dose not given
Method: FIG. 9. […] After an 8 hour treatment with lipopolysaccharide (LPS) and H. gentianoides fractions, a protein extraction was performed on the RAW 264.7 macrophages. Separation of the proteins was carried out on a discontinuous (4% stacking, 10% resolving) sodium dodecyl sulfate-polyacrylamide (30% acrylamide/bis solution) (BioRad; Hercules, Calif.) gel, followed by transfer to a PVDF membrane (GE Healthcare; Piscataway, N.J.) at 100V for 2.5 hours. COX-2 rabbit polyclonal antibody (Santa Cruz Biotechnology, Santa Cruz, Calif.) was diluted 1:1000 in 5% milk Tris-buffered saline with 0.5% Tween-20 (TBS-T). The secondary antibody (goat, anti-rabbit IgG, HRP conjugated, Santa Cruz Biotechnology; Santa Cruz, Calif.) was diluted 1:1000 in 5% milk in TBS-T. Detection was visualized on blue sensitive autoradiographic film (Marsh Bioproducts; Rochester, N.Y.) with a chemiluminescence (ECLplus) detection kit (GE Healthcare; Piscataway, N.J.).
After an 8 hour treatment with lipopolysaccharide (LPS) and H. gentianoides fractions, RAW 264.7 cells were rinsed twice with ice cold 1× phosphate buffered saline (PBS). […] The protein concentration in each lysate was determined using the bicinchonic acid and copper sulfate protein assay (Sigma; St. Louis, Mo.). […]

cyclooxygenase-1 = assay: Western blot of COX-1 protein in LPS-induced RAW 264.7 macrophages; conditions: 8 hour treatment

Compound	lowest tested dose with significant reduction of PGE2 concentrations [1]	cytotoxicity (RAW264.7 macrophages; dose of 100 μM)	doses at which significant cytotoxicity stops (RAW264.7 macrophages; RAW264.7 macrophages, tested 0.5-100 μM)	cyclooxygenase-2 enzyme (cyclooxygenase-2)	cyclooxygenase-1 protein (cyclooxygenase-1)	tested dose from which cytotoxicity is significant (RAW264.7 macrophages; RAW264.7 macrophages)
CC(C)=CCc1c(O)c(CC2=C(O)C(C)=C(O)C(CC=C(C)C)(C(=O)C(C)C)C2=O)c(O)c(C(=O)C(C)C)c1O (centres unmarked) [hyperbrasilol C]	10 µM	no significant cytotoxicity				
Cc1c(O)c(CC2=C(O)C(C)(C)C(=O)C(C(=O)C(C)C)=C2O)c(O)c(C(=O)C(C)C)c1O [saroaspidin A]	2 µM		≤ 10 µM	reduces	does not appear to be affected	
CC(C)=CCc1c(O)c(CC2=C(O)C(C)(C)C(=O)C(C(=O)C(C)C)=C2O)c(O)c(C(=O)C(C)C)c1O [uliginosin A]	10 µM					100 µM

From patent US7854946B1, “Anti-inflammatory and anti-HIV compositions and methods of use” (Iowa State University Research Foundation, Inc., priority 2007, dated 2010)
